Measured values as given in ChEMBL document CHEMBL4613277, “Improving the Potency of N-Aryl-2,5-dimethylpyrroles against Multidrug-Resistant and Intracellular Mycobacteria” (ACS Med Chem Lett, 2020).
≈ marks a conversion by molar mass, not a printed value. Calls of active or inactive are those of the source. The calls are words filed in the database; no cut-off is given here.

Legend:
[1] = system: Mycobacterium tuberculosis; assay: Antimycobacterial activity against Mycobacterium tuberculosis H37Rv assessed as reduction in bacterial growth incubated for 7 days by resazurin based assay; type: functional; conditions: 168 h
[2] = system: Mycobacterium tuberculosis; assay: Antimycobacterial activity against Mycobacterium tuberculosis H37Rv infected in mouse J774.1 cells assessed as reduction in bacterial colony at 1 to 10 times MIC incubated for 72 hrs by colony counting method; type: functional, organism-based
[3] = Selectivity index, ratio of GI50 for mouse Macrophage cells to MIC for Mycobacterium tuberculosis H37Rv; type: toxicity
[4] = Cytotoxicity against mouse macrophage cells assessed as growth inhibition incubated for 48 hrs by resazurin based assay; type: cell-based
[5] = system: Mycobacterium tuberculosis; assay: Bactericidal activity against Mycobacterium tuberculosis H37Rv assessed as reduction in bacterial growth at 0.35 ug/ml incubated for 3 to 4 weeks by time kill assay; type: functional, organism-based
[6] = system: Mycobacterium tuberculosis; assay: Bacteriostatic activity against Mycobacterium tuberculosis H37Rv assessed as reduction in bacterial growth at 0.07 ug/ml incubated for 3 to 4 weeks by time kill assay; type: functional, organism-based
[7] = system: Mycolicibacterium aurum; assay: Antimycobacterial activity against Mycobacterium aurum infected in mouse RAW264.7 cells assessed as reduction in bacterial growth incubated for 48 hrs by HT-SPOTi assay; type: functional
[8] = system: Mycobacterium tuberculosis; assay: Bacteriostatic activity against Mycobacterium tuberculosis H37Rv assessed as reduction in bacterial growth at 0.32 ug/ml incubated for 3 to 4 weeks by time kill assay; type: functional, organism-based
[9] = Acute toxicity in Galleria mellonella wax moth larve assessed as adverse effect at 12 mg/kg observed for 5 days; type: organism-based; conditions: in vivo, 120 h
[10] = Acute toxicity in Galleria mellonella wax moth larve assessed as mortality by measuring melanization at 12 mg/kg observed for 5 days; type: organism-based; conditions: in vivo, 120 h
[11] = system: Mycolicibacterium aurum; assay: Antimycobacterial activity against Mycobacterium aurum assessed as reduction in bacterial growth incubated for 48 hrs by HT-SPOTi assay; type: functional

For `NNC(=O)c1ccncc1` [ISONIAZID], the MIC [1] was 0.24 µg/mL (≈ 1.75 µM) and the inhibition [2] was “Active”.

In the case of `Cc1nn(-c2ccc(Cl)cc2)c(C)c1CNCc1ccccc1`, the MIC [1] is reported as > 25 µg/mL.

`Cc1cc(CN[C@H]2C[C@@H]3CC[C@H]2C3)c(C)n1-c1ccc(Cl)cc1` showed an MIC [1] of 0.25 to 0.5 µg/mL (≈ 0.76 to 1.52 µM), a selectivity ratio [3] of 47 to 94 and a GI50 at 48 h [4] of 23.4 µg/mL (≈ 71.1 µM).

Work on `Cc1cc(CNC2CCCCC2)c(C)n1-c1ccc(C(C)C)cc1` yielded an MIC [1] of 0.12 to 0.25 µg/mL (≈ 0.37 to 0.77 µM), a selectivity ratio [3] of 23 to 48 and a GI50 at 48 h [4] of 5.8 µg/mL (≈ 17.9 µM).

With `Cc1nn(-c2ccc(Cl)cc2)c(C)c1CNC1CCCCC1` the MIC [1] was > 25 µg/mL.

In the case of `Cc1nn(-c2ccccc2)c(C)c1CNC1CCCCC1`, the MIC [1] is reported as > 25 µg/mL.

With `Clc1ccc2nc(CNC3CCCCC3)cn2c1` the MIC [1] was > 25 µg/mL.

With `COc1ccc(-n2c(C)cc(CNC3CCCCC3)c2C)cc1` the MIC [1] was 0.12 to 0.25 µg/mL (≈ 0.384 to 0.8 µM), the selectivity ratio [3] was 16 to 32 and the GI50 at 48 h [4] was 3.9 µg/mL (≈ 12.5 µM).

With `Clc1ccc2nc(CNCc3ccccc3)cn2c1` the MIC [1] was > 25 µg/mL.

With `Clc1ccc(-n2cc(CNCc3ccccc3)nn2)cc1` the MIC [1] was > 25 µg/mL.

In the case of `COc1c(N2C[C@@H]3CCCN[C@@H]3C2)c(F)cc2c(=O)c(C(=O)O)cn(C3CC3)c12`, the Activity [5] is reported as “Active”, the Activity [6] is reported as “inactive” and the inhibition [2] is reported as “Active”.

In the case of `CO[C@H]1/C=C/O[C@@]2(C)Oc3c(C)c(O)c4c(O)c(c(/C=N/N5CCN(C)CC5)c(O)c4c3C2=O)NC(=O)/C(C)=C\C=C\[C@H](C)[C@H](O)[C@@H](C)[C@@H](O)[C@@H](C)[C@H](OC(C)=O)[C@@H]1C` [RIFAMPIN], the MIC [1] is reported as > 0.06 µg/mL.

Molecule `Cc1cc(CNCC2CCCCC2)c(C)n1-c1ccc(Cl)cc1` has an MIC [1] of 0.06 to 0.3 µg/mL (≈ 0.181 to 0.907 µM), a selectivity ratio [3] of 39 to 195 and an MIC [7] of 1.95 µg/mL (≈ 5.89 µM). For the same molecule, the Activity [8] was “Active”, the GI50 at 48 h [4] was 11.7 µg/mL (≈ 35.4 µM) and the inhibition [2] was “Active”. The Activity [9] was “Non-Toxic”, the Activity [10] was “Non-Toxic” and the MIC [11] was 3.9 µg/mL (≈ 11.8 µM).

For `Clc1ccc(-n2cc(CNC3CCCCC3)nn2)cc1`, the MIC [1] was > 25 µg/mL.
